These results are taken from patent publication US20220243211A1, “PEPTIDE NUCLEIC ACID COMPOSITIONS WITH MODIFIED HOOGSTEEN BINDING SEGMENTS AND METHODS OF USE THEREOF” (Yale University, priority 2019, published 2022).

Series [1] can be described thus: Zeta potential and hydrodynamic diameter of formulated NPs by dynamic light scattering. In kind it is physicochemical. Particulars: NPs containing PNA/donor DNA, PBS buffer, n = 3; for Z Av Diameter: dynamic light scattering. As to the method:
Blank NPs containing no PNA and a mismatch donor DNA as a control were prepared as a control. The mismatched donor DNA was purposely added into blank NPs because addition of donor DNA helps to produce a similar surface charge on the control NPs as on the test NPs encapsulated with PNA/donor DNA combinations. […] All NP in the diameters were in the range of 200-350 nm, as measured by dynamic light scattering (Table 1), consistent with previous measurements (McNeer, et al., Nat Commun 6, 6952 (2015), Fields, et al., Adv Healthc Mater 4, 361-366 (2015), Fields, et al., J Control Release 164, 41-48 (2012)). PNA/DNA-loaded NPs were cationic (Fields, et al., Adv Healthc Mater 4, 361-366 (2015), Fields, et al., J Control Release 164, 41-48 (2012)) for PBAE/PLGA/MPG NPs (Table 1).

The subject of a further series is human CFBE cells. Briefly: MQAE cAMP-stimulated chloride efflux assay. In kind it is cell-based. The text has this:
FIG. 3 is a bar graph showing chloride efflux measured using fluorescent indicator dye N-[ethoxycarbonylmethyl]-6-methoxy-quinolinium bromide (MQAE), in untreated human CFBE cells and those treated with NPs, and those treated with blank particles. One way ANOVA with multiple comparisons was used to analyze chloride efflux in untreated CF cells, blank particle treated CF cells, PNA/DNA particle treated cells and normal human bronchial epithelial cells (16HBE14o-).
CFBE cells (CFBE41o-) and human bronchial epithelial cells (16HBE14o-) (Gruenert, et al., J Cyst Fibros 3 Suppl 2, 191-196 (2004)) were grown with EMEM (Corning) with 10% FBS, 20 mM L-glutamine, and Pen/Strep. Once grown to confluence, cells were trypsinized by first washing with PBS, then adding 0.25% trypsin for 5 minutes, and harvesting with culture media. Once grown to confluence, cells were trypsinized by first washing with 0.05% trypsin, then adding 0.25% trypsin for 5 minutes, and harvesting with RPMI medium with 10% FBS. Cells were frozen in 5% DMSO in culture medium as necessary. NPs were suspended in culture media by vigorous vortexing and water sonication, then added directly to cells at concentrations of 2 mg/mL×10^6 cells (corresponding to approximately 10^9 PNA/DNA molecules delivered to each cell assuming 100% efficiency).
Glass coverslips (22×50 mm) were sterilized by dipping in 70% EtOH and were subsequently placed in 60 mm cell culture dishes (3 per dish.) The plates were exposed to UV irradiation overnight. Cells (˜1×10^6) were seeded in the dish and the cells grew to confluence in MEM media containing 10% FBS, L-glutamine, and pen/strep. At least 12 hours before the experiment, the cells were fed with MEM media containing 5% FBS, L-glutamine, and pen/strep. The experiment was run as previously described (Shenoy, et al., Pediatric research 70, 447-452 (2011)). Briefly, cells were incubated with N-[ethoxycarbonylmethyl]-6-methoxy-quinolinium bromide (MQAE, Invitrogen) in DMSO (100 uL, 30 mM suspended in HEPES Cl solution) for 30 minutes at 37° C. […] MQAE was excited at 354±10 nm and the emitted fluorescence of at least 20 cells was measured at 460±10 nm every five seconds for two minutes. […] The rate of change in MQAE fluorescence (Δarbitrary fluorescence units/sec) was used to calculate Cl^− efflux.
To compare the activity of unmodified (classic) and γPNA treatments on gene editing in human CFBE cells, the cells were treated with either PLGA NPs containing no PNA/mismatched donor DNA (referred to as blank NP), PLGA NPs containing hCF-PNA/donor DNA, PBAE/PLGA/MPG NPs containing hCF-PNA/donor DNA and PBAE/PLGA/MPG NPs containing γhCF-PNA-h/donor DNA. After treatment of the cells, cAMP-stimulated chloride efflux was quantified using the MQAE assay (McNeer, et al., Nat Commun 6, 6952 (2015)). […]

[2] abbreviates: PBAE/PLGA/MPG NPs with PNA/donor DNA.

For “H-KKK-TJTJJTTT-OOO-TTTCCTCTATGGGTAAG-KKK-NH2 [γhCF PNA-h] (TNTNNTTTTTTCCTCTATGGGTAAG; listed as DNA, chemistry not fully specified) [tail clamp PNA targeting human CFTR gene with MPγ monomers in Hoogsteen domain]”, in series [1], the “Zeta Potential” value is recorded as 13.3 mV and the “Z Av Diameter” value is 293.2 nm. For the same substance, in the series on human CFBE cells (setting [2]), the chloride efflux result is “no different than non-CF affected HBE cells” and the “chloride efflux compared to untreated cells or blank NPs” value was found to be 7 fold.
For the substance “H-KKK-TJTJJTTT-OOO-TTTCCTCTATGGGTAAG-KKK-NH2 [hCF PNA] (TNTNNTTTTTTCCTCTATGGGTAAG; listed as DNA, chemistry not fully specified)”, in series [1], the “Zeta Potential” value was determined as 14.2 mV and the “Z Av Diameter” value was determined as 291.7 nm. Further, in the series with human CFBE cells (setting [2]), the chloride efflux entry was “further enhanced”. Moreover, in the series with human CFBE cells (PLGA NPs with PNA/donor DNA), the chloride efflux result is “marked increase in chloride efflux”.
